Patent US20220370625A1, “THERAPEUTIC CONJUGATES” (Totus Medicines Inc., priority 2019, published 2022)

Target: T1, estrogen receptor (Homo sapiens, UniProt P03372)
T1 construct: expressed in transfected cells; host or cells: HEK293 (Gibco 293-H), transient transfection with FuGENE HD
T1 sequence (P03372 1-595): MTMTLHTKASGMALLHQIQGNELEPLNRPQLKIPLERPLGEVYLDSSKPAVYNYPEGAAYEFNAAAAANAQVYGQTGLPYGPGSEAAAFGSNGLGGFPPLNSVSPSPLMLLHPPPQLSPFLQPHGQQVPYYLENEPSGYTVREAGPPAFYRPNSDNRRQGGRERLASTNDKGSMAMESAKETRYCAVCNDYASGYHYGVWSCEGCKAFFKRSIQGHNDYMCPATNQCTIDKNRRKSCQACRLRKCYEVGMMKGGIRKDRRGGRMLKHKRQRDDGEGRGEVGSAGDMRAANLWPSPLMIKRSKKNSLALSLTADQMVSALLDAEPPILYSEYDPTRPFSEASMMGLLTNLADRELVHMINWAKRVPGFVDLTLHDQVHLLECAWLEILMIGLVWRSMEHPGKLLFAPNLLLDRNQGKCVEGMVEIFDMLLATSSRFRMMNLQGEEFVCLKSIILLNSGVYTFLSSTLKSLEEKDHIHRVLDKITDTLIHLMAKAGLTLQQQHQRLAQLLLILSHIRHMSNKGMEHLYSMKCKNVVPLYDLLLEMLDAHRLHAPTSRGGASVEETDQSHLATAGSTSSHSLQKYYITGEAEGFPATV
Assay: NanoBRET screening of ARCS (binding assay with washout) in transfected HEK293 cells
Conditions: HEK293 cells transfected with NanoLuc-target fusion; for Binding Potential (Percent inhibition): estrogen receptor
Procedure: Human embryonic kidney 293-H (HEK 293, Gibco 293-H, #11631017) cell lines are maintained in Dulbecco's Modified Eagle Medium, high glucose, pyruvate (DMEM, Gibco, #11995065) supplemented with 10% fetal bovine serum (FBS, Gibco, #10082147) and 1× penicillin-streptomycin (100× solution, Gibco, #15140148) at 37° C. and 5% CO2 in a water-saturated incubator. Cell are trypsinized using 0.05% or 0.25% Trypsin-EDTA solution (Trypsin-EDTA, phenol red, Gibco, #25200056 (0.25%) or #25300054). Opti-MEM media supplemented with 10% fetal bovine serum (Opti-MEM I reduced serum media, no phenol red, Gibco, #11058021) is used for culturing cells overnight for NanoBRET readout experiments.
HEK293 cells are cultivated appropriately prior to assay. The medium from cell flask is removed via aspiration, washed 1× with PBS followed by aspiration, trypsinized, and cells are allowed to dissociate from the flask. Trypsin is neutralized using growth medium and cells are pelleted via centrifugation at 200×g for 5 minutes. The medium is aspirated and the cells are resuspended into a single cell suspension using Opti-MEM I supplemented with 10% FBS. The cell density is adjusted to 2×10^5/mL in Opti-MEM I supplemented with 10% FBS in a sterile, conical tube. The cells are transfected and aliquoted directly in a 96-well plate for the NanoBRET assay the next day, and therefore, the cells are cultured overnight in Opti-MEM. The cells are also transfected in bulk and dispensed into a 96-well plate to allow cells to adhere to the plate overnight, thereby enabling washout studies.
The lipid:DNA complexes are prepared as follows:
A 10 μg/mL solution of DNA is prepared in Opti-MEM without serum. This solution contains the following ratios of carrier DNA and DNA encoding NanoLuc fused to the biological target. Serial dilution steps may be warranted to accurately dilute the NanoLuc fusion DNA. Added, in order, the following reagents to a sterile polystyrene test tube: 1 mL of Opti-MEM without phenol red; 9.0 μg/mL of carrier DNA; 1.0 μg/mL of NanoLuc fusion DNA (for some targets, the amount is less). The reagents are mixed thoroughly. 30 μL of FuGENE HD is added into each mL of DNA mixture to form lipid:DNA complex. […] It is mixed by pipetting up and down 5-10 times and incubated at room temperature for 20 minutes to allow complexes to form. 1 part (e.g. 1 mL) of lipid:DNA complex is mixed with 20 parts (e.g. 20 mL) of HEK293 cells in suspension at 2×10^5/mL and mixed gently by pipetting up and down 5 times in a sterile, conical tube. Larger or smaller bulk transfections are scaled accordingly, using this ratio. 100 μL cells+lipid:DNA complex is dispensed into a sterile, tissue-culture treated 96-well plate (20,000 cells/well), and incubated at least 16 hours to allow expression. The cells are incubated in a 37° C.+5% CO2 incubator for >16 hrs. A serially diluted inhibitor or test compound is prepared at 100× final concentration in 100% DMSO. The serially diluted inhibitor stock is prepared in PCR plates. 1 μL per well of 100× serially diluted inhibitor/test compound is added to the cells in 96-well plates that have been transiently transfected overnight and mixed by tapping the plate by hand. The plate is incubated at 37° C.+5% CO2 incubator overnight. A 1× solution of substrate mix (500× stock) and appropriate concentration of tracer is prepared in Opti-Mem. The cells are washed by setting a plate washer to the 96 well plate 5× in PBS pH 7.4 by adding 200 μL PBS each time. The cells are incubated at 37° C. for 2 hours. 100 μL of the 1× Substrate-Tracer solution is added and the 96 well plate is gently tapped to mix. The plate on plate reader is read every hour for the next 6 hours.
The binding assays of some ARCS are shown below. Compound 2-314 formed a covalent bond with an estrogen receptor of <20%. Compounds 2-302 and 2-303 formed a covalent bond with an estrogen receptor from about 50% to 70%. […]

SMILES | Binding Potential (Percent inhibition) | activity of an estrogen receptor is inhibited (overnight incubation, washout) | formed a covalent bond with an estrogen receptor (overnight incubation, washout)
CC1Cc2c([nH]c3ccccc23)C(c2c(F)cc(OCCNCC=CC(=O)N(C)C)nc2F)N1CC(C)(C)F (centres unmarked) [Compound 2-102] | +++ (+++ 80-90%) |  | 
CC1Cc2c([nH]c3ccccc23)C(c2c(F)cc(OCCNCC=CC(=O)N(C)C)cc2F)N1CC(C)(C)F (centres unmarked) [Compound 2-103] | ++++ (++++ >90%) |  | 
C[C@@H]1Cc2c([nH]c3ccccc23)[C@@H](c2c(F)cc(OCCNC/C=C/C(=O)N(C)C)cc2F)N1CC(C)(F)CO (some centres unmarked) [Compound 2-106] | ++++ (++++ >90%) |  | 
CC1Cc2c([nH]c3ccccc23)C(c2ccc(NCCNCC=CC(=O)N(C)C)nc2)N1CC(C)(C)F (centres unmarked) [Compound 2-107] | +++ (+++ 80-90%) |  | 
CC1Cc2c([nH]c3ccccc23)C(c2c(F)cc(NCCNCC=CC(=O)N(C)C)nc2F)N1CC(C)(C)F (centres unmarked) [Compound 2-108] | +++ (+++ 80-90%) |  | 
CC1Cc2c([nH]c3ccccc23)C(c2c(F)cc(NCCNCC=CC(=O)N(C)C)cc2F)N1CC(C)(C)F (centres unmarked) [Compound 2-109] | +++ (+++ 80-90%) |  | 
CC1Cc2c([nH]c3cc(F)ccc23)C(c2c(F)cc(OCCNCC=CC(=O)N(C)C)cc2F)N1CC(C)(C)F (centres unmarked) [Compound 2-115] | ++++ (++++ >90%) |  | 
CC1Cc2c([nH]c3cc(F)ccc23)C(c2c(F)cc(OCCNCC=CC(=O)N(C)C)cc2F)N1CC(C)(F)CO (centres unmarked) [Compound 2-118] | ++++ (++++ >90%) |  | 
C#CCCCNC(=O)C=CCNCCOc1cc(F)c(C2c3[nH]c4ccccc4c3CC(C)N2CC(C)(C)F)c(F)c1 (centres unmarked) [Compound 2-300] | +++ (+++ 80-90%) |  | 
CC1Cc2c([nH]c3ccccc23)C(c2c(F)cc(N)cc2F)N1CC(C)(C)F (centres unmarked) [Compound 2-301] | +++ (+++ 80-90%) |  | 
CC1Cc2c([nH]c3ccccc23)C(c2ccc(C=CCNCC=CC(=O)N(C)C)nc2)N1CC(C)(C)F (centres unmarked) [Compound 2-302] | ++ (++ 50-70%) |  | 
CC1Cc2c([nH]c3ccccc23)C(c2c(F)cc(C=CCNCC=CC(=O)N(C)C)cc2F)N1CC(C)(C)F (centres unmarked) [Compound 2-303] | ++ (++ 50-70%) |  | 
CC1Cc2c([nH]c3ccccc23)C(c2c(F)cc(C=CCNCC=CC(=O)N(C)C)nc2F)N1CC(C)(C)F (centres unmarked) [Compound 2-304] | ++++ (++++ >90%) |  | 
C=CC(=O)NCCc1ccc(C2c3[nH]c4ccccc4c3CC(C)N2CC(C)(C)F)cn1 (centres unmarked) [Compound 2-305] | ++++ (++++ >90%) |  | 
C=CC(=O)NCCc1cc(F)c(C2c3[nH]c4ccccc4c3CC(C)N2CC(C)(C)F)c(F)n1 (centres unmarked) [Compound 2-306] | ++++ (++++ >90%) |  | 
C=CC(=O)NCCc1cc(F)c(C2c3[nH]c4ccccc4c3CC(C)N2CC(C)(C)F)c(F)c1 (centres unmarked) [Compound 2-307] | ++++ (++++ >90%) |  | 
CC#CC(=O)NCCc1ccc(C2c3[nH]c4ccccc4c3CC(C)N2CC(C)(C)F)cn1 (centres unmarked) [Compound 2-308] | ++++ (++++ >90%) |  | 
CC#CC(=O)NCCc1cc(F)c(C2c3[nH]c4ccccc4c3CC(C)N2CC(C)(C)F)c(F)n1 (centres unmarked) [Compound 2-309] | ++++ (++++ >90%) |  | 
CC#CC(=O)NCCc1cc(F)c(C2c3[nH]c4ccccc4c3CC(C)N2CC(C)(C)F)c(F)c1 (centres unmarked) [Compound 2-310] | ++++ (++++ >90%) |  | 
C#CCN(C)C(=O)C=CCNCCOc1cc(F)c(C2c3[nH]c4ccccc4c3CC(C)N2CC(C)(C)F)c(F)c1 (centres unmarked) [Compound 2-311] | ++++ (++++ >90%) |  | 
CC1Cc2c([nH]c3ccccc23)C(c2ccc(N)cc2)N1CC(C)(C)F (centres unmarked) [Compound 2-312] | ++++ (++++ >90%) |  | 
CC1Cc2c([nH]c3ccccc23)C(c2ccc(N)nc2)N1CC(C)(C)F (centres unmarked) [Compound 2-314] | + (+ <20%) | < 20% | < 20%
CC1Cc2c([nH]c3ccccc23)C(c2ccc(OCCNCC=CC(=O)N(C)C)nc2)N1CC(C)(C)F (centres unmarked) [Compound 2-315] | ++++ (++++ >90%) |  | 
C=CC(=O)NCCOc1ccc(C2c3[nH]c4ccccc4c3CC(C)N2CC(C)(C)F)cn1 (centres unmarked) [Compound 2-316] | ++++ (++++ >90%) |  | 
